Reference: ChEMBL document CHEMBL4840345, “Penispidins A-C, Aromatic Sesquiterpenoids from Penicillium virgatum and Their Inhibitory Effects on Hepatic Lipid Accumulation” (J Nat Prod, 2021)
The source made the active and inactive calls. No cut-off for these calls is given here.

Experiments:
HepG2 [1] = test: Cytotoxicity against human HepG2 cells assessed as cell viability at 10 uM measured after 24 hrs by MTT assay; format: cell-based; details: hepg2, 24 h
HepG2 [2] = test: Hypolipidemic activity in human HepG2 cells assessed as inhibition of oleic acid-BSA induced intracellular lipid accumulation at 10 uM after 24 hrs by Oil Red O staining based microscopic assay; format: functional, cell-based
HepG2 [3] = test: Hypolipidemic activity in human HepG2 cells assessed as inhibition of oleic acid-BSA induced triglyceride accumulation at 10 uM after 24 hrs; format: functional, cell-based

SMILES	Activity (HepG2 [1])	inhibition (HepG2 [2])	Activity (HepG2 [3])
C[C@@]12CCC[C@@](C)(C1)c1ccc(C(=O)O)cc1O2	Non-Toxic	–	–
C[C@]12CCC[C@](C)(C1)c1ccc(C(=O)O)cc1O2	Non-Toxic	–	–
COC(=O)c1ccc2c(c1)OC(C)(C)[C@@H]1CC[C@]21C	Non-Toxic	Active	Active
COC(=O)c1ccc2c(c1)O[C@]1(C)CCC[C@@]2(C)C1	Non-Toxic	–	–
